Structures can show the parent of a compound that is named as a salt.
Key:
HPK1 [1] = molecular target: T1, HPK1 (Homo sapiens, UniProt Q92918); assay: HPK1 kinase activity assay (ADP-Glo); conditions: 1 nM HPK1, 10 μM ATP, 0.1 μg/μL MBP
T1 sequence (Q92918 1-346): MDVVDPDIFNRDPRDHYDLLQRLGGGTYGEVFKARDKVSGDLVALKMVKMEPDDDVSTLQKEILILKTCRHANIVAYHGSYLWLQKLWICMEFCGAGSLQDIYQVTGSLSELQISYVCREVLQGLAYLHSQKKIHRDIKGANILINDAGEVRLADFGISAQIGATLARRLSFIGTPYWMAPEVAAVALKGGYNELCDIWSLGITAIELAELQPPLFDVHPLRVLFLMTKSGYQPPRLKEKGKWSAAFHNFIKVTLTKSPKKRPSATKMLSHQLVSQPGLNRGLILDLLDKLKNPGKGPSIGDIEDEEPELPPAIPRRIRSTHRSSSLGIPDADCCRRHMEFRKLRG
Description: Preparation of buffer: Ix reaction buffer (40 mM Tris-HCl, 20 mM MgCl2, 0.01% Brij35, 50 μM DTT, 0.1 mg/ml BSA) was prepared using sterile water, which was prepared and used on the day of the experiment.
(§1) Preparation of 1000× drug stock plate: a 1000× compound stock plate was prepared. […] The compound stock plate was sealed with a sealing film and stored in a −20° C. refrigerator for later use.
Compound preparation and dosing: the 1000× drug stock plate was taken and melted at room temperature in the dark. Then 5× drug intermediate plate was prepared using reaction buffer and mixed well. 2 μL was transferred from the 5× drug intermediate plate into a 384-well plate, and negative control well and positive control well (in which 2 μL reaction buffer containing 0.5% DMSO was added) were set. Each point was repeated twice.
Preparation and incubation of reaction mixture: HPK1 protein was diluted to a 2.5× working solution with reaction buffer. 4 μL 2.5×HPK1 protein was added to each well containing test compound and positive control well, and 4 μL of reaction buffer without HPK1 protein was added to the negative control well. The obtained mixture was centrifuged at 1000 rpm for 1 min and then incubated in a 20° C. incubator for 15 min. A 2.5× mixed working solution of MBP protein and ATP was prepared with reaction buffer at concentrations of 0.5 μg/μL and 50 μM, respectively. 4 μL of the mixed working solution of MBP and ATP was added to each well, centrifuged at 1000 rpm for 1 min, and then incubated in a 20° C. incubator for 90 min.
ADP-Glo detection and reading plate: 10 μl ADP-Glo was added to each well of the test plate. The resulting mixture was centrifuged at 1000 rpm for 1 min and incubated in a 20° C. incubator for 60 min. Then 10 μL of the final incubation solution was transferred from the test plate to a new 384-well plate. 10 μL of kinase detection reagent was added to each well, centrifuged at 400 g for 1 min, and incubated in a 20° C. incubator for 60 min Chemiluminescent signals were read by a microplate reader.

HPK1 [2] = molecular target: HPK1 (Homo sapiens, UniProt Q92918); assay: SLP76 phosphorylation assay (intracellular HPK1 inhibitory activity, p-SLP76 S376 ELISA in Jurkat cells); conditions: Clone E6-1 cells, 1 h compound pre-incubation, anti-CD3 beads stimulation 20 min, Phospho-SLP-76 (Ser376) ELISA
Target sequence in this assay (Q92918 whole entry): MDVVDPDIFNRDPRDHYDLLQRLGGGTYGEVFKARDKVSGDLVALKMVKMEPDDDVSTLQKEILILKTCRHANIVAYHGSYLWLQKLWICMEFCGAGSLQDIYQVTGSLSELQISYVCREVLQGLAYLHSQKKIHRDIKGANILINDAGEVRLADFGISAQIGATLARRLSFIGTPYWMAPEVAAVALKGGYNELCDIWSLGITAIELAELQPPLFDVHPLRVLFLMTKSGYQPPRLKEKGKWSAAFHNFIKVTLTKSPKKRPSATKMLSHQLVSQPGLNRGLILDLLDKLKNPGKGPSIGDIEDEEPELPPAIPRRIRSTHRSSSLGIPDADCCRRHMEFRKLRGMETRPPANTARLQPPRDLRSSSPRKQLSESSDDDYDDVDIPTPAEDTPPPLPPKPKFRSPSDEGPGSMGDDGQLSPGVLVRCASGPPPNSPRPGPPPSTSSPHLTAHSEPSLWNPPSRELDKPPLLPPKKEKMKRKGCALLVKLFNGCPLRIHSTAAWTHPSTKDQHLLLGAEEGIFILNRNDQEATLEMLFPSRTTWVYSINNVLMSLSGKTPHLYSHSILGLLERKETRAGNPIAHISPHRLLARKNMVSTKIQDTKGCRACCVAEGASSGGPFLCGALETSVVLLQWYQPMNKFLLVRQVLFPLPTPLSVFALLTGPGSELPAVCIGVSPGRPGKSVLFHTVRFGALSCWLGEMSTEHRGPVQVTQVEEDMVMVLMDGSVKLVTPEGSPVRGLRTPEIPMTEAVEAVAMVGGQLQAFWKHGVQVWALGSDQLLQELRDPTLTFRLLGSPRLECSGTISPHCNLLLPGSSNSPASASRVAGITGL
Description: SLP76 Phosphorylation Assay
Intracellular HPK1 inhibitory activity was tested by the detection of SLP76 phosphorylation at S376.
as §1
Preparation of Beads wash buffer: 0.1 mL FBS and 0.4 mL 0.5 M EDTA (with a final concentration of 2 mM) were added to 100 mL PBS and stored in a 4° C. refrigerator for later use.
100× Protease Inhibitor Cocktail in 1/20 total volume was added and stored on wet ice for later use. The buffer was ready to use.
Cell inoculation and dosing: the 1000× drug stock plate was taken and melted at room temperature in the dark. […] Jurkat cells in the logarithmic growth phase were selected and collected. […] The cells were inoculated into a 96-well plate (the volume was 90 μL per well), and a blank control well (without cells inoculation, and in which 110 μL of medium was added) was set. 10 μL of a drug-containing culture medium (10×) was transferred from the 10× drug intermediate plate into the 96-well cell plate (with a final concentration of 0.1% DMSO), and set a DMSO control group (in which 0.1% DMSO was added to the treated cells), a stimulated control group (in which 10 μL of culture medium was added to treat cells) and an unstimulated group (in which 10 μL of culture medium was added to treat cells). The wells were duplicated, gently patted, mixed, and then placed into a 5% CO2 incubator at 37° C. for 1 h.
Anti-CD3 beads stimulation: Dynabeads anti-human CD3 was taken, shaken, and mixed for 60 s. The required volume of beads was pipetted, and an equal volume or at least 1 mL of washing solution was added to wash once. Fresh complete medium was then added to resuspend and adjust the density of the beads to 4×10^7/mL, and the beads were placed on ice for later use. At the end of drug pre-incubation, the cell culture plate was taken out. 10 μL Dynabeads anti-human CD3 was added to each well to treat the cells, and 10 μL the culture medium was added to the unstimulated group. The cell culture plate was shaken to mix well at 2500 rpm for 10 s, and then placed into a 5% CO2 incubator at 37° C. and continued to culture for 20 min.
Detection of p-SLP76 protein level: PathScan Phospho-SLP-76 (Ser376) Sandwich ELISA Kit was applied to detect p-SLP76 protein level. At the end of the Anti-CD3 beads stimulation, the cell culture plate was removed from the incubator. […] After lysis, the cell culture plate was centrifuged at 4° C., 400×g for 5 min. 25 μL of sample and 75 μL of sample diluent were added to each well, and the plate was placed in a 5% CO2 incubator at 37° C. for 2 h. The subsequent detection steps were carried out following the kit instructions, and the absorbance (OD value) of each well was read at 450 nm by a microplate reader.

[3] = HPK1 Kinase activity IC50, ADP-Glo

| IC50 (HPK1 [1]; [3]) | IC50 (HPK1 [2]; p-SLP76 IC50, Jurkat) | Compound | IC50 (HPK1 [1]; read-out: HPK1 Kinase activity IC50, ADP-Glo) | IC50 (HPK1 [2]; read-out: p-SLP76 IC50, Jurkat) |
| --- | --- | --- | --- | --- |
| 0.00011 µM | 0.0663 µM | O=C(N1CCc2cc(-c3cnc4[nH]cc(Cl)c4n3)cc([C@@H]3COCCN3)c2C1)N1CC2CCC(C1)O2 [Compound Z549, (8-oxa-3-azabicyclo[3.2.1]octan-3-yl)(6-(7-chloro-5H-pyrrolo[2,3-b]pyrazin-2-yl)-8-((R)-morpholin-3-yl)-3,4-dihydroisoquinolin-2(1H)-yl)methanone] |  |  |
| 0.00012 µM | 0.0501 µM | O=C(N1CCc2cc(-c3cnc4[nH]cc(C(F)(F)F)c4c3)cc([C@@H]3COCCN3)c2C1)N1CC2CCC(C1)O2 [Compound Z544, (8-oxa-3-azabicyclo[3.2.1]octan-3-yl)(8-((R)-morpholin-3-yl)-6-(3-(trifluoromethyl)-1H-pyrrolo[2,3-b]pyridin-5-yl)-3,4-dihydroisoquinolin-2(1H)-yl)methanone] |  |  |
| 0.00021 µM | 0.0674 µM | Cc1c[nH]c2ncc(-c3cc4c(c([C@@H]5COCCN5)c3)CN(C(=O)N3CC[C@H](F)C3)CC4)nc12 [Compound Z603, ((S)-3-fluoropyrrolidin-1-yl)(6-(7-methyl-5H-pyrrolo[2,3-b]pyrazin-2-yl)-8-((R)-morpholin-3-yl)-3,4-dihydroisoquinolin-2(1H)-yl)methanone] |  |  |
| 0.00076 µM | 0.207 µM | Cc1c[nH]c2ncc(-c3cc4c(c([C@@H]5COCCN5)c3)CN(C(=O)C3(C)CCOCC3)CC4)cc12 [Compound Z615, (R)-(6-(3-methyl-1H-pyrrolo[2,3-b]pyridin-5-yl)-8-(morpholin-3-yl)-3,4-dihydroisoquinolin-2(1H)-yl)(4-methyltetrahydro-2H-pyran-4-yl)methanone] |  |  |
| 0.00024 µM | 0.0867 µM | Cc1c[nH]c2ncc(-c3cc4c(c([C@@H]5COCCN5)c3)CN(C(=O)N3CCOC[C@@H]3C)CC4)cc12 [Compound Z581, (6-(3-methyl-1H-pyrrolo[2,3-b]pyridin-5-yl)-8-((R)-morpholin-3-yl)-3,4-dihydroisoquinolin-2(1H)-yl)((S)-3-methylmorpholino)methanone] |  |  |
| 0.00024 µM | 0.0818 µM | Cc1c[nH]c2ncc(-c3cc4c(c([C@@H]5COCCN5)c3)CN(C(=O)N3CCC(F)CC3)CC4)nc12 [Compound Z566, (R)-(4-fluoropiperidin-1-yl)(6-(7-methyl-5H-pyrrolo[2,3-b]pyrazin-2-yl)-8-(morpholin-3-yl)-3,4-dihydroisoquinolin-2(1H)-yl)methanone] |  |  |
| 0.00027 µM | 0.0761 µM | Cc1c[nH]c2ncc(-c3cc4c(c([C@@H]5COCCN5)c3)CN(C(=O)N3C[C@H]5C[C@@H]3CO5)CC4)nc12 [Compound Z607, ((1R,4R)-2-oxa-5-azabicyclo[2.2.1]heptan-5-yl)(6-(7-methyl-5H-pyrrolo[2,3-b]pyrazin-2-yl)-8-((R)-morpholin-3-yl)-3,4-dihydroisoquinolin-2(1H)-yl)methanone] |  |  |
| 0.00033 µM | 0.0662 µM | Cc1c[nH]c2ncc(-c3cc4c(c([C@@H]5COCCN5)c3)CN(C(=O)[C@](C)(O)C(F)(F)F)CC4)nc12 [Compound Z568, (S)-3,3,3-trifluoro-2-hydroxy-2-methyl-1-(6-(7-methyl-5H-pyrrolo[2,3-b]pyrazin-2-yl)-8-((R)-morpholin-3-yl)-3,4-dihydroisoquinolin-2(1H)-yl)propan-1-one] |  |  |

Continued, compound first:

| Compound | IC50 (HPK1 [1]; [3]) | IC50 (HPK1 [2]; p-SLP76 IC50, Jurkat) | IC50 (HPK1 [1]; read-out: HPK1 Kinase activity IC50, ADP-Glo) | IC50 (HPK1 [2]; read-out: p-SLP76 IC50, Jurkat) |
| --- | --- | --- | --- | --- |
| Cc1c[nH]c2ncc(-c3cc4c(c([C@@H]5COCCN5)c3)CCN(C(=O)C3CCOCC3)C4)cc12 [Compound Z377, (R)-(7-(3-methyl-1H-pyrrolo[2,3-b]pyridin-5-yl)-5-(morpholin-3-yl)-3,4-dihydroisoquinolin-2(1H)-yl)(tetrahydro-2H-pyran-4-yl)methanone] | 0.00028 µM | 0.19 µM |  |  |
| Cc1c[nH]c2ncc(-c3cc4c(c([C@@H]5CCCN5)c3)CN(C(=O)C(C)O)C4)cc12 (mixture of isomers) [Compound Z382, rac-2-hydroxy-1-(6-(3-methyl-1H-pyrrolo[2,3-b]pyridin-5-yl)-4-((R)-pyrrolidin-2-yl)isoindolin-2-yl)propan-1-one] | 0.00135 µM | 0.474 µM |  |  |
| Cc1c[nH]c2ncc(-c3cc4c(c([C@@H]5COCCN5)c3)CN(C(=O)N3CC5CCC3CO5)CC4)cc12 (stereo partly drawn) [Compound Z457, (2-oxa-5-azabicyclo[2.2.2]octan-5-yl)(6-(3-methyl-1H-pyrrolo[2,3-b]pyridin-5-yl)-8-((R)-morpholin-3-yl)-3,4-dihydroisoquinolin-2(1H)-yl)methanone] | 0.00014 µM | 0.0609 µM |  |  |
| CCNC(=O)N1CCc2cc(-c3cnc4[nH]cc(C)c4c3)cc([C@@H]3COCCN3)c2C1 [Compound Z376, (R)—N-ethyl-6-(3-methyl-1H-pyrrolo[2,3-b]pyridin-5-yl)-8-(morpholin-3-yl)-3,4-dihydroisoquinoline-2(1H)-carboxamide formate] | 0.00033 µM | 0.211 µM |  |  |
| Cc1c[nH]c2ncc(-c3cc4c(c([C@@H]5CCCN5)c3)CN(C(=O)[C@H](O)c3cccnc3)CC4)cc12 (single isomer, unassigned) [Compound Z287] | 0.0004 µM | 0.338 µM |  |  |
| CC(C)c1c[nH]c2ncc(-c3cc4c(c([C@@H]5CCCN5)c3)CN(C(=O)C(C)(C)O)CC4)cc12 [Compound Z416, (S)-2-hydroxy-1-(6-(3-isopropyl-1H-pyrrolo[2,3-b]pyridin-5-yl)-8-(pyrrolidin-2-yl)-3,4-dihydroisoquinolin-2(1H)-yl)-2-methylpropan-1-one] | 0.00029 µM | 0.0631 µM |  |  |
| Cc1c[nH]c2ncc(-c3cc4c(c([C@@H]5COCCN5)c3)CN(C(=O)C(C)(C)O)CC4)cc12 [Compound Z372, (R)-2-hydroxy-2-methyl-1-[6-(3-methyl-1H-pyrrolo[2,3-b]pyridin-5-yl)-8-[morphin-3-yl]-3,4-dihydroisoquinolin-2(1H)-yl]propan-1-one] | 0.00018 µM | 0.106 µM |  |  |
| Cc1c[nH]c2ncc(-c3cc4c(c([C@@H]5COCCN5)c3)CN(C(=O)C(C)(C)O)CC4)nc12 [Compound Z507, (R)-1-(6-(7-methyl-5H-pyrrolo[2,3-b]pyrazin-2-yl)-8-(morpholin-3-yl)-3,4-dihydroisoquinolin-2(1H)-yl)-2-hydroxy-2-methylpropan-1-one] | 0.00043 µM | 0.119 µM |  |  |
| 5-(8-(4-fluoropyrrolidin-2-yl)isochromen-6-yl)-3-methyl-1H-pyrrolo[2,3-b]pyridine [Compound Z367-1] |  |  | 0.00144 µM | 0.999 µM |
| CC(C)c1c[nH]c2ncc(-c3cc4c(c([C@@H]5COCCN5)c3)CN(C(=O)C(C)(C)O)CC4)cc12 [Compound Z419, (R)-2-hydroxy-1-(6-(3-isopropyl-1H-pyrrolo[2,3-b]pyridin-5-yl)-8-(morpholin-3-yl)-3,4-dihydroisoquinolin-2(1H)-yl)-2-methylpropan-1-one] | 0.00011 µM | 0.0742 µM |  |  |

— patent US20250084078A1, “FUSED RING-SUBSTITUTED SIX-MEMBERED HETEROCYCLIC COMPOUND, AND PREPARATION METHOD THEREFOR AND USE THEREOF” (GENFLEFT THERAPEUTICS (SHANGHAI) INC., priority 2022, published 2025)
